Laboratory results as given in EP4553080A1, “NUCLEOSIDE DERIVATIVES AS ANTIVIRAL AGENTS AGAINST CORONAVIRUSES” (Ustav Organicke Chemie a Biochemie AV CR, v.v.i., priority 2023, dated 2025).

Each compound was assayed against nsp14 methyltransferase from SARS-CoV-2 (Severe acute respiratory syndrome coronavirus 2, UniProt P0DTD1) (assay: Nsp14 MTase activity inhibition in vitro (EchoMS assay)). Conditions: recombinant nsp14 protein expressed in E. coli; dose-response curve.
Type: biochemical

Structure (SMILES) | IC50
Cc1nc(N)c2ccn([C@@H]3O[C@H](CSCc4c(C)noc4-c4ccccc4)[C@@H](O)[C@H]3O)c2n1 [Compound 208, (2R,3R,4S,5S)-2-(4-Amino-2-methyl-7H-pyrrolo[2,3-d]pyrimidin-7-yl)-5-((((3-methyl-5-phenylisoxazol-4-yl)methyl)thio)methyl)tetrahydrofuran-3,4-diol] | 30 to 100 nM
Cc1noc(-c2ccccc2)c1CSC[C@H]1O[C@@H](n2cc(-c3ccc(-c4cccnc4)cc3)c3c(N)ncnc32)[C@H](O)[C@@H]1O [Compound 187] | 30 to 100 nM
Cc1noc(-c2ccccc2)c1CSC[C@H]1O[C@@H](n2cc(-c3ccc([N+](=O)[O-])nc3)c3c(N)ncnc32)[C@H](O)[C@@H]1O [Compound 152, (2R,3R,4S,5S)-2-(4-Amino-5-(6-nitropyridin-3-yl)-7H-pyrrolo[2,3-d]pyrimidin-7-yl)-5-((((3-methyl-5-phenylisoxazol-4-yl)methyl)thio)methyl)tetrahydrofuran-3,4-diol] | 30 to 100 nM
Cc1noc(-c2ccccc2)c1CSC[C@H]1O[C@@H](n2cc(C#Cc3cccc4ccccc34)c3c(N)ncnc32)[C@H](O)[C@@H]1O [Compound 175b, (2R,3R,4S,5S)-2-(4-Amino-5-(naphthalen-1-ylethynyl)-7H-pyrrolo[2,3-d]pyrimidin-7-yl)-5-((((3-methyl-5-phenylisoxazol-4-yl)methyl)thio)methyl)tetrahydrofuran-3,4-diol] | 500 to 2000 nM
Cc1noc(-c2ccc(N)cc2)c1CSC[C@H]1O[C@@H](n2cc(C#Cc3cncnc3)c3c(N)ncnc32)[C@H](O)[C@@H]1O [Compound 241c, (2R,3R,4S,5S)-2-(4-Amino-5-(pyrimidin-5-ylethynyl)-7H-pyrrolo[2,3-d]pyrimidin-7-yl)-5-((((5-(4-aminophenyl)-3-methylisoxazol-4-yl)methyl)thio)methyl)tetrahydrofuran-3,4-diol] | 10 to 30 nM
Cc1cccc(-c2ccccc2)c1CSC[C@H]1O[C@@H](n2ccc3c(N)ncnc32)[C@H](O)[C@@H]1O [Compound 58c, (2R,3R,4S,5S)-2-(4-Amino-7H-pyrrolo[2,3-d]pyrimidin-7-yl)-5-((((3-methyl-[1,1'-biphenyl]-2-yl)methyl)thio)methyl)tetrahydrofuran-3,4-diol] | 500 to 2000 nM
Cc1noc(-c2ccccc2)c1CSC[C@H]1O[C@@H](n2cc(C#Cc3cnc4ccccc4c3)c3c(N)ncnc32)[C@H](O)[C@@H]1O [Compound 176b, (2R,3R,4S,5S)-2-(4-Amino-5-(quinolin-3-ylethynyl)-7H-pyrrolo[2,3-d]pyrimidin-7-yl)-5-((((3-methyl-5-phenylisoxazol-4-yl)methyl)thio)methyl)tetrahydrofuran-3,4-diol] | 100 to 500 nM
Cc1noc(-c2ccccc2)c1CSC[C@H]1O[C@@H](n2cc(C#Cc3ccccn3)c3c(N)ncnc32)[C@H](O)[C@@H]1O [Compound 171b, (2R,3R,4S,5S)-2-(4-Amino-5-(pyridin-2-ylethynyl)-7H-pyrrolo[2,3-d]pyrimidin-7-yl)-5-((((3-methyl-5-phenylisoxazol-4-yl)methyl)thio)methyl)tetrahydrofuran-3,4-diol] | 10 to 30 nM
Cc1noc(-c2ccccc2)c1CSC[C@H]1O[C@@H](n2ccc3c(N)ncnc32)[C@H](O)[C@@H]1O [Compound 47c, (2R,3R,4S,5S)-2-(4-Amino-7H-pyrrolo[2,3-d]pyrimidin-7-yl)-5-((((3-methyl-5-phenylisoxazol-4-yl)methyl)thio)methyl)tetrahydrofuran-3,4-diol] | 30 to 100 nM
C#Cc1cn([C@@H]2O[C@H](CSCc3c(C)noc3-c3ccccc3)[C@@H](O)[C@H]2O)c2ncnc(N)c12 [Compound 140b, (2R,3R,4S,5S)-2-(4-Amino-5-ethynyl-7H-pyrrolo[2,3-d]pyrimidin-7-yl)-5-((((3-methyl-5-phenylisoxazol-4-yl)methyl)thio)methyl)tetrahydrofuran-3,4-diol] | 30 to 100 nM
COc1ccc(-c2cn([C@@H]3O[C@H](CSCc4c(C)noc4-c4ccccc4)[C@@H](O)[C@H]3O)c3ncnc(N)c23)cc1OC [Compound 147b] | 10 to 30 nM
Cc1noc(-c2ccccc2)c1CSC[C@H]1O[C@@H](n2cc(C#Cc3ncc[nH]3)c3c(N)ncnc32)[C@H](O)[C@@H]1O [Compound 178b, (2R,3R,4S,5S)-2-(5-((1H-Imidazol-2-yl)ethynyl)-4-amino-7H-pyrrolo[2,3-d]pyrimidin-7-yl)-5-((((3-methyl-5-phenylisoxazol-4-yl)methyl)thio)methyl)tetrahydrofuran-3,4-diol] | 30 to 100 nM
Cc1noc(-c2ccccc2)c1CSC[C@H]1O[C@@H](n2cc(Cc3ccc4ccccc4c3)c3c(N)ncnc32)[C@H](O)[C@@H]1O [Compound 186b, (2R,3R,4S,5S)-2-(4-Amino-5-(naphthalen-2-ylmethyl)-7H-pyrrolo[2,3-d]pyrimidin-7-yl)-5-((((3-methyl-5-phenylisoxazol-4-yl)methyl)thio)methyl)tetrahydrofuran-3,4-diol] | 500 to 2000 nM
Cc1noc(-c2ccc3c(c2)OCO3)c1CSC[C@H]1O[C@@H](n2cc(C#Cc3cncnc3)c3c(N)ncnc32)[C@H](O)[C@@H]1O [Compound 243c, (2R,3R,4S,5S)-2-(4-Amino-5-(pyrimidin-5-ylethynyl)-7H-pyrrolo[2,3-d]pyrimidin-7-yl)-5-((((5-(benzo[d][1,3]dioxol-5-yl)-3-methylisoxazol-4-yl)methyl)thio)methyl)tetrahydrofuran-3,4-diol] | 10 to 30 nM
COc1ccc(/C=C/c2cn([C@@H]3O[C@H](CSCc4c(C)noc4-c4ccccc4)[C@@H](O)[C@H]3O)c3ncnc(N)c23)cc1 [Compound 182b, (2R,3R,4S,5S)-2-(4-Amino-5-((E)-4-methoxystyryl)-7H-pyrrolo[2,3-d]pyrimidin-7-yl)-5-((((3-methyl-5-phenylisoxazol-4-yl)methyl)thio)methyl)tetrahydrofuran-3,4-diol] | 30 to 100 nM
Cc1ccc(-c2onc(C)c2CSC[C@H]2O[C@@H](n3cc(C#Cc4cncnc4)c4c(N)ncnc43)[C@H](O)[C@@H]2O)cc1C [Compound 242c, (2R,3R,4S,5S)-2-(4-Amino-5-(pyrimidin-5-ylethynyl)-7H-pyrrolo[2,3-d]pyrimidin-7-yl)-5-((((5-(3,4-dimethylphenyl)-3-methylisoxazol-4-yl)methyl)thio)methyl)tetrahydrofuran-3,4-diol] | 10 to 30 nM
Cc1noc(-c2ccccc2)c1CSC[C@H]1O[C@@H](n2cc(C3C[C@@H]4CC[C@H]3C4)c3c(N)ncnc32)[C@H](O)[C@@H]1O (stereo in doubt) [Compound 136b, (2R,3R,4S,5S)-2-(4-Amino-5-((1S,4R)-bicyclo[2.2.1]heptan-2-yl)-7H-pyrrolo[2,3-d]pyrimidin-7-yl)-5-((((3-methyl-5-phenylisoxazol-4-yl)methyl)thio)methyl)tetrahydrofuran-3,4-diol] | 100 to 500 nM
Cc1csc(-c2ccccc2)c1CSC[C@H]1O[C@@H](n2ccc3c(N)ncnc32)[C@H](O)[C@@H]1O [Compound 53c, (2R,3R,4S,5S)-2-(4-Amino-7H-pyrrolo[2,3-d]pyrimidin-7-yl)-5-((((4-methyl-2-phenylthiophen-3-yl)methyl)thio)methyl)tetrahydrofuran-3,4-diol] | 100 to 500 nM
CCC(C)c1cn([C@@H]2O[C@H](CSCc3c(C)noc3-c3ccccc3)[C@@H](O)[C@H]2O)c2ncnc(N)c12 (stereo partly drawn) [Compound 130b, (2R,3R,4S,5S)-2-(4-Amino-5-(sec-butyl)-7H-pyrrolo[2,3-d]pyrimidin-7-yl)-5-((((3-methyl-5-phenylisoxazol-4-yl)methyl)thio)methyl)tetrahydrofuran-3,4-diol] | 100 to 500 nM
